These results are taken from US8828925B2, “Etoposide and doxorubicin conjugates for drug delivery” (Angiochem Inc., priority 2008, dated 2014).

For one series, the system named is U87 cells. As to the kind of experiment: in vitro cell proliferation assay ([3H]-thymidine incorporation), U87. Type of series: cell-based, human.
Series [1] deals with Lung Carcinoma (NCI-H460). As to the kind of experiment: in vitro cell proliferation assay, NCI-H460. It counts as cell-based. The note with it: Table 5.
For series [2], the system named is U87 cells in nude mice brain. In words: intracerebral human brain tumor model (U87), survival. It counts as in vivo. The note with it: doxorubicin 6 mg/kg, (DoxSu)3-An2 40 mg/kg i.v. 1× per week. The protocol: The intracerebral human brain tumor model was established by stereotactic inoculation of 5×10^5 U87 cells in nude mice brain. Female athymic nude mice (Crl:Nu/Nu-nuBR; 20-25 g, 4-6 weeks old; Charles River Canada, St-Constant, QC) were used for tumor models and were maintained in a pathogen-free environment. One hour before surgery, mice received a subcutaneous injection of buprenorphine (0.1 mg kg^−1). For tumor cell inoculation, mice were anesthetized by i.p. injection of ketamine/xylazine (120/10 mg kg^−1) and placed in a stereotactic apparatus (Kopf; Tujunga, Calif.). A burr hole was drilled 1.5 mm anterior and 2.5 mm lateral to the bregma. The cell suspension in 5 μL of serum free cell culture medium was injected over a 5 minute period using a Hamilton syringe at a depth of 3.5 mm.
Drug treatment started 3 days post-inoculation (Table 8). […] Drug solutions were prepared in dextrose 5% water (D5W). Injection solutions were freshly prepared before each administration. Clinical signs of disease progression and body weights were monitored everyday. When mice reached terminal endpoints (20% of decrease in body weight), they were sacrificed by carbon dioxide asphyxiation.

For series [3], the system named is mouse brain. The note with it: in vivo.
Description: (§1) The uptake of [^125I]-polypeptides to the luminal side of mouse brain capillaries was measured using the in situ brain perfusion method adapted in our laboratory for the study of agent uptake in the mouse brain.
(§2) Polypeptides were iodinated with standard procedures using iodo-beads from Sigma. Briefly polypeptides were diluted in 0.1 M phosphate buffer, pH 6.5 (PB). Two iodo-beads were used for each protein. These beads were washed twice with 3 mL of PB on a Whatman filter and re-suspended in 60 of PB. ^125I (1 mCi) from Amersham-Pharmacia biotech was added to the bead suspension for 5 min at room temperature. Each iodination was initiated by the addition of the polypeptide (100 μg). After an incubation of 10 min at room temperature, the free iodine was removed by HPLC.
(§3) Briefly, the right common carotid of ketamine/xylazine (140/8 mg/kg i.p.) anesthetized mice was exposed and ligated at the level of the bifurcation of the common carotid, rostral to the occipital artery. The common carotid was then catheterized rostrally with polyethylene tubing filled with heparin (25 U/mL) and mounted on a 26-gauge needle. The syringe containing the perfusion fluid ([^125I]-polypeptides or [^14C]-inulin in Krebs/bicarbonate buffer at a pH7.4 gassed with 95% O2 and 5% CO2) was placed in an infusion pump (Harvard pump PHD 2000; Harvard Apparatus) and connected to the catheter. Prior to the perfusion, the contralateral blood flow contribution was eliminated by severing heart ventricles. The brain was perfused for the indicated times at a flow rate of 1.15 mL/min. After 14.5 min of perfusion, the brain was further perfused for 60 seconds with Krebs buffer to wash the excess of [^125I]-proteins. Mice were then decapitated to terminate perfusion and the right hemisphere was isolated on ice before being subjected to capillary depletion. Aliquots of homogenates, supernatants, pellets and perfusates were taken to measure their contents in [^125I]-conjugates by TCA precipitation and to evaluate the apparent volume of distribution.
For series [4], the system named is SK-HEP-1 cells. In words: in vitro cell proliferation assay ([3H]-thymidine incorporation), SK-HEP-1.
Description: (§4) For the in vitro cell proliferation assay, between 2.5 and 5×10^4 of U87 or SK-HEP-1 cells were seeded in a 24 well tissue culture microplate in a final volume of 1 mL of medium with 10% serum and incubated for 24 hours at 37° C. and 5% CO2. The medium was then replaced with serum-free medium and incubated overnight. The next morning the agent was freshly dissolved in dimethyl sulfoxide (DMSO) and the medium was replaced with complete medium containing the agent at different concentrations in triplicate. The final concentration of DMSO was 0.1%. The control used was a microplate well with cells and without agent. The cells were incubated for 48 to 72 hrs at 37° C. and 5% CO2. After the incubation, the medium was changed and replaced with 1 mL of complete medium containing [^3H]-thymidine (1 pCi/assay). The plate was incubated at 37° C. and 5% CO2 for 4 hrs. The medium as removed, and the cells were washed with PBS at 37° C. The cells were fixed with a mix of ethanol:acetic acid (3:1), washed with water, and precipitated 3 times with 10% of ice-cold TCA (trichloroacetic acid). Finally 500 μL of PCA (perchloric acid) were added to the wells and the microplates were heated for 30 min at 65° C. and 30 min at 75° C. The contents of each well were then transferred to a scintillation vial with 10 mL of scintillation cocktail and the activity was measured in CPM (count per minute) on a liquid scintillation counter Tri-Carb from Packard.
Series [5] is described as follows: plasma kinetics after bolus administration. It counts as in vivo, CD-1 mice. The note with it: IV bolus, 20 mg/kg, mice. The protocol: FIG. 8 describes the plasma kinetics of Etop-An2(3:1) following administration as a bolus. Radiolabeled (^125I) Etop-An2 (20 mg/kg) was injected in bolus by intravenous (i.v.) or intraperitoneal (i.p.) routes in CD-1 mice weighing about 25-30 g. The injection solution was composed of 12.5% dimethylsulfoxide (DMSO), 12.5% anhydrous ethanol 25% polyethylene glycol 400 (PEG400) and 50% NaCl/Glycine buffer. At several time intervals (0.5, 1, 2, and 6 hours) the blood was collected by cardiac puncture and animals were sacrificed. After blood centrifugation, the plasma radioactivity was measured in a gamma counter (Wizard 1470 Automatic Gamma Counter). The radioactivity was interpreted as % of injected dose per gram of plasma. Results were plotted using GraphPad prism software and the area under the curve (AUC) for each injection mode was calculated. The bioavailability of intraperitoneal Etop-An2 conjugate was then estimated by dividing the AUC after i.p. injection by the AUC after i.v. injection.

Series [6] can be described thus: tissue distribution after IV bolus. Type of series: in vivo. The note with it: thirty minutes after IV bolus, mice, FIG. 12. The protocol:
The effect of conjugation of an agent to a vector on distribution of the agent or the pharmacokinetics of a polypeptide that is conjugated to an agent was evaluated by administering a labeled polypeptide or conjugate to an animal and measuring distribution of the polypeptide or conjugate to organs (e.g., using ^3H or ^125I labeled conjugates) to mice. Similar experiments can be performed with compounds that include any of polypeptides described herein (e.g., the polypeptides described in Table 1 such as AngioPep-3, AngioPep-4a, AngioPep-4b, AngioPep-5, AngioPep-6, and AngioPep-7, or analogs thereof). Here, the unconjugated anticancer agent and the conjugates were injected intravenously to mice as a bolus. Tissues were collected at different times (0.25, 0.5, 1, and 4 hrs) and homogenized. To quantify the amount of ^3H-labeled conjugate, tissue homogenates were digested with tissue solubilizer, and 10 mL of liquid scintillator was added to samples. The amount of the ^125I labeled conjugate, in the different tissues is measured after TCA precipitation. Radioactivity associated with the tissues is quantified. The area under the curve (AUC 0-4) is estimated using the Prism software and is plotted for the different tissues.
FIG. 11 compares the brain distribution of Etop-An2(3:1) versus unconjugated etoposide thirty minutes after IV bolus administration to mice.

Series [7] has as its system SK-HEP-1 cells.
Description: as §4
A further series addresses P-gp (Mus musculus, UniProt P21447).
Series [8] has as its system mouse brain. In words: in situ brain perfusion (brain uptake).
Description: as §1, §2, §3
The conditions of series [9]: literature data (Reddy et al. 2005); cited from earlier work.
Setting [10] is: Homo sapiens, U-87 MG, Table 5, incubation 48 to 72 hrs, read-out: IC50 (nM) Glioblastoma (U87).
Where [11] appears, read: Homo sapiens, SK-HEP1, read-out: IC50 (nM) Hepatocarcinoma (SK-Hep-1).

Where two headings read alike, the source gives them in different places.

Sequence of P-gp (P21447 whole entry, the tested form may be a part): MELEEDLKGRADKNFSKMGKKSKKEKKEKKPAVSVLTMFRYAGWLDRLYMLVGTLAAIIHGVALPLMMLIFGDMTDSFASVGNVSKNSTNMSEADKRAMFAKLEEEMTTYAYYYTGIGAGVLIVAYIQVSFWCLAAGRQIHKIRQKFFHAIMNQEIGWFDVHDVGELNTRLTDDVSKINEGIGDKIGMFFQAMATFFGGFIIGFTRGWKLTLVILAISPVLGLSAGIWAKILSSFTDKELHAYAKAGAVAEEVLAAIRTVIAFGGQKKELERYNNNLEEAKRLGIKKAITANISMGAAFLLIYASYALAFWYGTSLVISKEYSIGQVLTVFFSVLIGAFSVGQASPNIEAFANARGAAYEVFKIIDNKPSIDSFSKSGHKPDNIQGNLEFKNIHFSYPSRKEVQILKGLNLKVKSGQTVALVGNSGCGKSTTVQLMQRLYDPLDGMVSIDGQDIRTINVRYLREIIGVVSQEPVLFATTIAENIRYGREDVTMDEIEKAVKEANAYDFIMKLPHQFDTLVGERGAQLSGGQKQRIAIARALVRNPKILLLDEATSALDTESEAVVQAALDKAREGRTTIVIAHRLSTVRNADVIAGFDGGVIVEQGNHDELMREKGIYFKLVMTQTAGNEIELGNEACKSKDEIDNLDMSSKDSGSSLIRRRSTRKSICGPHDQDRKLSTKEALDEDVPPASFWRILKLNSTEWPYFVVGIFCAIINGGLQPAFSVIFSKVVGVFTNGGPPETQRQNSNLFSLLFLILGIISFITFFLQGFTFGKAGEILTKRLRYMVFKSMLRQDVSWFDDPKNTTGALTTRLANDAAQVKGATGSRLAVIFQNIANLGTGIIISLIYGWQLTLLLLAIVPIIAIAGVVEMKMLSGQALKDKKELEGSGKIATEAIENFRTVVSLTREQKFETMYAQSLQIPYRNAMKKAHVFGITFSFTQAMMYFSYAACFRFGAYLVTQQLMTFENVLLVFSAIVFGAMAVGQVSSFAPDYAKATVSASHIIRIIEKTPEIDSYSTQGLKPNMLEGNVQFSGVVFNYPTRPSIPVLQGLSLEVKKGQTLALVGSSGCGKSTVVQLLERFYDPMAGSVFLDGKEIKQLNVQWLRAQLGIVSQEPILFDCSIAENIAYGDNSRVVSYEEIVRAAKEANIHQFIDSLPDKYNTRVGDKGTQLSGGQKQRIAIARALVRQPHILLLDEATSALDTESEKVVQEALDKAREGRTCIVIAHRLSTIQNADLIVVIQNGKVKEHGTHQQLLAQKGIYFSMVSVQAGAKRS
Description for P-gp: as §1
Briefly, the right common carotid of ketamine/xylazine (140/8 mg/kg i.p.) anesthetized mice was exposed and ligated at the level of the bifurcation of the common carotid, rostral to the occipital artery. The common carotid was then catheterized rostrally with polyethylene tubing filled with heparin (25 U/mL) and mounted on a 26-gauge needle. The syringe containing the perfusion fluid ([^125I]-polypeptides or [^14C]-inulin in Krebs/bicarbonate buffer at a pH7.4 gassed with 95% O2 and 5% CO2) was placed in an infusion pump (Harvard pump PHD 2000; Harvard Apparatus) and connected to the catheter. Prior to the perfusion, the contralateral blood flow contribution was eliminated by severing heart ventricles. The brain was perfused for the indicated times at a flow rate of 1.15 mL/min. After 14.5 min of perfusion, the brain was further perfused for 60 seconds with Krebs buffer to wash the excess of [^125I]-proteins. Mice were then decapitated to terminate perfusion and the right hemisphere was isolated on ice before being subjected to capillary depletion. […]

On to `COc1cccc2c1C(=O)c1c(O)c3c(c(O)c1C2=O)C[C@@](O)(C(=O)CO)C[C@@H]3O[C@H]1C[C@H](N)[C@H](O)[C@H](C)O1` [Doxorubicin, doxorubicin], for which the IC50 was 18 nM with U87 cells (setting [10]); 11 nM in [1] (Homo sapiens, NCI-H460); 10 nM in the series on SK-HEP-1 cells [4] (setting [11]). Also, the “Survival (days) Mean Trial 1” value in [2] (Trial 1) was found to be 20.6 days. In series [2] (Trial 1, treatment from 3 days post-inoculation), the “Survival (days) Median Trial 1” value is reported as 21 days. In addition, the “Survival (days) Median Trial 2” value in [2] (Trial 2) is listed as 23 days. Besides, in the series on mouse brain [3] (pH 7.4), the “Brain Kin” value came out at 0.00028 mL/s/g.
Turning to `COc1cc([C@@H]2c3cc4c(cc3[C@@H](O[C@@H]3O[C@@H]5CO[C@@H](C)O[C@H]5[C@H](O)[C@H]3OC(=O)CCCC(=O)NCCCC[C@H](NC(=O)CNC(=O)[C@H](CCCNC(=N)N)NC(=O)[C@H](CO)NC(=O)CNC(=O)CNC(=O)[C@H](Cc3ccc(O)cc3)NC(=O)[C@H](Cc3ccccc3)NC(=O)[C@H](Cc3ccccc3)NC(=O)[C@@H](NC(=O)CCCC(=O)O[C@H]3[C@H](O[C@@H]5c6cc7c(cc6[C@@H](c6cc(OC)c(O)c(OC)c6)[C@H]6C(=O)OC[C@@H]65)OCO7)O[C@@H]5CO[C@@H](C)O[C@H]5[C@@H]3O)[C@@H](C)O)C(=O)N[C@@H](CCCNC(=N)N)C(=O)N[C@@H](CC(N)=O)C(=O)N[C@@H](CC(N)=O)C(=O)N[C@@H](Cc3ccccc3)C(=O)N[C@@H](CCCCNC(=O)CCCC(=O)O[C@H]3[C@H](O[C@@H]5c6cc7c(cc6[C@@H](c6cc(OC)c(O)c(OC)c6)[C@H]6C(=O)OC[C@@H]65)OCO7)O[C@@H]5CO[C@@H](C)O[C@H]5[C@@H]3O)C(=O)N[C@H](C(=O)N[C@@H](CCC(=O)O)C(=O)N[C@@H](CCC(=O)O)C(=O)N[C@@H](Cc3ccc(O)cc3)C(=O)O)[C@@H](C)O)[C@H]3COC(=O)[C@H]23)OCO4)cc(OC)c1O` [Etop-An2(3:1), ((2″-Glutaryl)-Etop)3-(Angiopep2)], the IC50 in the series on U87 cells (U-87 Cells, 24 hours, read-out: IC50 (nM) 24 hours) is 453 nM; with U87 cells (U-87 Cells, 48 hours, read-out: IC50 (nM) 48 hours) it was 151 nM; in the series on U87 cells (U-87 Cells, 72 hours, read-out: IC50 (nM) 72 hours), 164 nM; with SK-HEP-1 cells [7], 59 nM; in the series on SK-HEP-1 cells [4] (read-out: IC50 (nM) 24 hours, SK-HEP-1, 24 hours), 160 nM; in the series with SK-HEP-1 cells [4] (read-out: IC50 (nM) 72 hours, SK-HEP-1, 72 hours) it was 52 nM. For the same molecule, in series [5], the “AUC0-∞ (hr°μg/mL)” value stood at 82 hr°μg/mL. Also, in series [5], the “Elim. Rate Const.” value came to 1.6 h⁻¹. Also, in series [5], the “T1/2α” value is 25.8 min. Also, in series [6], the “concentration in the tissues studied versus unconjugated etoposide” value is on record as “increased concentration in the tissues studied”. Moreover, the “Vd (slope) relative to the corresponding unconjugated drug” value in the series on mouse brain [3] is on record as “higher”. Further, the P-gp substrate status result with P-gp is on record as “not a P-gp substrate”.
On to `COc1cc(C2c3cc4c(cc3[C@@H](O[C@@H]3O[C@@H]5CO[C@@H](C)O[C@H]5[C@H](O)[C@H]3O)[C@H]3COC(=O)[C@H]23)OCO4)cc(OC)c1OC(=O)CN(C)C` (stereo partly drawn) [EtopDMG, Etoposide 4′-Dimethylglycine], for which the IC50 with U87 cells (setting [10]) turned out to be 145 nM; in series [1] (Homo sapiens, NCI-H460), 90 nM; with SK-HEP-1 cells [4] (setting [11]), 62 nM. Besides, the “Brain Kin” value in the series with mouse brain [8] worked out at 9e-05 mL/s/g.
As to `COc1cc([C@@H]2c3cc4c(cc3[C@@H](O[C@@H]3O[C@@H]5CO[C@@H](C)O[C@H]5[C@H](O)[C@H]3O)[C@H]3COC(=O)[C@H]23)OCO4)cc(OC)c1O` [Etoposide], the 50% inhibitory concentration (IC50) with U87 cells (Homo sapiens, U-87 MG, U-87 Cells, 24 hours, read-out: IC50 (nM) 24 hours) came to 160 nM; in the series with U87 cells (Homo sapiens, U-87 MG, U-87 Cells, 48 hours, read-out: IC50 (nM) 48 hours), 221 nM; with U87 cells (Homo sapiens, U-87 MG, U-87 Cells, 72 hours, read-out: IC50 (nM) 72 hours) it was 145 nM; with SK-HEP-1 cells [7], 56 nM; in the series with SK-HEP-1 cells [4] (Homo sapiens, SK-HEP1, 24 h, read-out: IC50 (nM) 24 hours), 116 nM; in the series on SK-HEP-1 cells [4] (Homo sapiens, SK-HEP1, 72 h, read-out: IC50 (nM) 72 hours), 50 nM. In addition, the T1/2α in series [9] was 7.8 min.
Consider “(Etoposide-4′-Dimethylglycine-2″-Glutaric)3-Angiopep-2 Conjugate [EtopDMG-An2(3:1)]”, for which the 50% inhibitory concentration (IC50) was determined as 330 nM with U87 cells (Table 5, incubation 48 to 72 hrs, read-out: IC50 (nM) Glioblastoma (U87)); 148 nM in series [1]; 48 nM in the series on SK-HEP-1 cells [4] (read-out: IC50 (nM) Hepatocarcinoma (SK-Hep-1), Table 5, incubation 48 to 72 hrs).
